Measured values: patent US8822517B2, “Arylosulfonamides for the treatment of CNS diseases” (Adamed SP. Z O.O., priority 2010, dated 2014)

Assays:
[1] = molecular target: T1, serotonine transporter (SERT) receptor (Homo sapiens, UniProt P31645); test: Binding assay SERT (h), [3H]imipramine, CHO cells; details: read-out: SERT [%]
T1 construct: expressed in transfected cells; host or cells: CHO cells
Procedure, shortened: (§1)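 At 1×10^−6 M, compounds were assessed for their effect on specific radioligand binding, computed as total less nonspecific binding (excess unlabelled ligand present).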

[2] = test system: sigma σ receptor; test: Binding assay σ (non-selective), [3H]DTG, rat cerebral cortex; details: percent inhibition of control specific binding; compounds tested at 1×10^−6 M
Experimental: (§2) The specific ligand binding to the receptors is defined as the difference between the total binding and the nonspecific binding determined in the presence of an excess of so unlabelled ligand.
(§3) The specific Ligand binding to the receptor is defined as the difference between total and non-specific binding determined in the presence of an excess of unlabelled ligand. The compounds were tested at a concentration of 1×10^−6 M, and scintillation counting was the method of detection of ligand binding.

[3] = test system: adrenergic α1 receptor; test: Binding assay α1 (non-selective), [3H]prazosin, rat cerebral cortex; details: percent inhibition of control specific binding; compounds tested at 1×10^−6 M
Procedure, shortened: as §1

[4] = molecular target: T2, muscarinic M3 receptor (Homo sapiens, UniProt P20309); test: Binding assay M3 (h), [3H]4-DAMP, CHO cells; details: read-out: M3 [%]
T2 construct: expressed in transfected cells; host or cells: CHO cells
T2 sequence (P20309 whole entry): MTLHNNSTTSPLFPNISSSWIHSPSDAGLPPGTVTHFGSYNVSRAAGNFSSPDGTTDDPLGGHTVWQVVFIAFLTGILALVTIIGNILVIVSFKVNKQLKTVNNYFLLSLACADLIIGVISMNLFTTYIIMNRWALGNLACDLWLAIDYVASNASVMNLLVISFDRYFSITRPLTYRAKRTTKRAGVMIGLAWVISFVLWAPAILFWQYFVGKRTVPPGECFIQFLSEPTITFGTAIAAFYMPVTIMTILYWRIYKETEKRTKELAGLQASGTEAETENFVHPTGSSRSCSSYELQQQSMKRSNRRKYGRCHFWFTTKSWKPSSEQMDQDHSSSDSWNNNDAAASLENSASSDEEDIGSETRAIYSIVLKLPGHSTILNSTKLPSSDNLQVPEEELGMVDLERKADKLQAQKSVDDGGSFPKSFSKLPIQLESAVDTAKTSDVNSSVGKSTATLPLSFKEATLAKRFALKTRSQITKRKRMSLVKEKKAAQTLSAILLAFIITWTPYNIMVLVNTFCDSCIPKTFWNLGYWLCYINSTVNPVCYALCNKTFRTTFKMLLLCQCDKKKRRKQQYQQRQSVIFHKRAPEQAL
Experimental: as §2, §3

[5] = molecular target: T3, serotoninergic receptor 5-HT2C (Homo sapiens, UniProt P28335); test: Binding assay 5-HT2C (h), [3H]mesulergine, HEK-293 cells; details: read-out: 5-HT2C [%]
T3 construct: expressed in transfected cells; host or cells: HEK-293 cells
T3 sequence (P28335 33-458): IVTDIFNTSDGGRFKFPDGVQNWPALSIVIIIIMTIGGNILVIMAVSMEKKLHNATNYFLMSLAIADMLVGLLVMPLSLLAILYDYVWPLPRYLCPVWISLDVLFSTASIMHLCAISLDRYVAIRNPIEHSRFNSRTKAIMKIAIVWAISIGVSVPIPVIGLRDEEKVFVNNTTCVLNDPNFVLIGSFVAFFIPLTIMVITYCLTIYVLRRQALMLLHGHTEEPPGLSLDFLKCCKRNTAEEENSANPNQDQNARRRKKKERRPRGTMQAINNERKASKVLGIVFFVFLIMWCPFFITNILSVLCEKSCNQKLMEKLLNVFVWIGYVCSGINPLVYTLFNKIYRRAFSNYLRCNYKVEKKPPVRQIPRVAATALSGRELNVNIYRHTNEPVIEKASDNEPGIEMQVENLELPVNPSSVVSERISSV
Experimental: as §2, §3

[6] = molecular target: dopaminergic D3 receptor (Homo sapiens, UniProt P35462); test: Binding assay D3 (h), [3H]methyl-spiperone, CHO cells; design: expressed in transfected cells; host or cells: CHO cells; details: read-out: D3 [%]
Sequence of dopaminergic D3 receptor (P35462 whole entry): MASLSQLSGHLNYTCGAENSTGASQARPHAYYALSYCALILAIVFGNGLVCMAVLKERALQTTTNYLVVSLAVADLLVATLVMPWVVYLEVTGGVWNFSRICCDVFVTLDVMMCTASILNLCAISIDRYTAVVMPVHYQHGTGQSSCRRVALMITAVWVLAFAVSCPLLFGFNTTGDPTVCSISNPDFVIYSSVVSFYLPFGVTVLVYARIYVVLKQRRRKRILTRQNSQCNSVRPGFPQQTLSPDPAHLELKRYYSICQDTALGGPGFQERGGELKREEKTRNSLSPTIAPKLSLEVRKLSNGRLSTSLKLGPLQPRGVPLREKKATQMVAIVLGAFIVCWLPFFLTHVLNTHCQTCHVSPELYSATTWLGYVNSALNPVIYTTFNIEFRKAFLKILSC
Procedure, shortened: as §1

[7] = molecular target: serotoninergic 5-HT6 receptor (Homo sapiens, UniProt P50406); test: Binding assay 5-HT6 (h), [3H]LSD, CHO cells; design: expressed in transfected cells; host or cells: CHO cells; details: read-out: 5-HT6
Sequence of serotoninergic 5-HT6 receptor (P50406 whole entry): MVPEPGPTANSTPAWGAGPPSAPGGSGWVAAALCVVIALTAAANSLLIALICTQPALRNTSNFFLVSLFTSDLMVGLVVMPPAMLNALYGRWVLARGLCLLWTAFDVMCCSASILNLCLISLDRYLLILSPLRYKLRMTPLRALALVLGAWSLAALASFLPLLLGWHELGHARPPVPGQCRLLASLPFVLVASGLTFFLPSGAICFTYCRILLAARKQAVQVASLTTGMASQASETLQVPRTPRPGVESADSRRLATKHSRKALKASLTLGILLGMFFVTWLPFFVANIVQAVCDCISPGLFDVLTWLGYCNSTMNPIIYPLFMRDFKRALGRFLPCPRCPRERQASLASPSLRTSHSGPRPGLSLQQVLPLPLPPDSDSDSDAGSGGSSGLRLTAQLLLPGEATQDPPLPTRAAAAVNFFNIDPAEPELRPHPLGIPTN
Procedure, shortened: as §1

[8] = molecular target: serotoninergic 5-HT7 receptor (Homo sapiens, UniProt P34969); test: Binding assay 5-HT7 (h), [3H]LSD, CHO cells; design: expressed in transfected cells; host or cells: CHO cells; details: read-out: 5-HT7
Sequence of serotoninergic 5-HT7 receptor (P34969 whole entry): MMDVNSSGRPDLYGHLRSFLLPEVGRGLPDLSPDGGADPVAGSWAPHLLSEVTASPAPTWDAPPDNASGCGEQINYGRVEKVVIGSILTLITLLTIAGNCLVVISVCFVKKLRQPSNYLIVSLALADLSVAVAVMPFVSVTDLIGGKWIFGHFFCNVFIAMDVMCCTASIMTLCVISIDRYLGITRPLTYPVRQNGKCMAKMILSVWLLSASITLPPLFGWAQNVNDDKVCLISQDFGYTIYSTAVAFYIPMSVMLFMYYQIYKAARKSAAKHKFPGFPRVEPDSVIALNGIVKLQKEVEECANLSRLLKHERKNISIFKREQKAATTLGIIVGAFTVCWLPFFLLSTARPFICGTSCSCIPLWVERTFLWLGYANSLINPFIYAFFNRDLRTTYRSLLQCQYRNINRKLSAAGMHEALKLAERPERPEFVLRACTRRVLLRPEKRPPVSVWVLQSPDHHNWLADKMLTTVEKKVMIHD
Procedure, shortened: as §1

[9] = molecular target: T4, adrenergic α2C receptor (Homo sapiens, UniProt P18825); test: Binding assay α2C (h), [3H]RX 821002, CHO cells; design: expressed in transfected cells; host or cells: CHO cells; details: read-out: α2C [%]
T4 sequence (P18825 1-462): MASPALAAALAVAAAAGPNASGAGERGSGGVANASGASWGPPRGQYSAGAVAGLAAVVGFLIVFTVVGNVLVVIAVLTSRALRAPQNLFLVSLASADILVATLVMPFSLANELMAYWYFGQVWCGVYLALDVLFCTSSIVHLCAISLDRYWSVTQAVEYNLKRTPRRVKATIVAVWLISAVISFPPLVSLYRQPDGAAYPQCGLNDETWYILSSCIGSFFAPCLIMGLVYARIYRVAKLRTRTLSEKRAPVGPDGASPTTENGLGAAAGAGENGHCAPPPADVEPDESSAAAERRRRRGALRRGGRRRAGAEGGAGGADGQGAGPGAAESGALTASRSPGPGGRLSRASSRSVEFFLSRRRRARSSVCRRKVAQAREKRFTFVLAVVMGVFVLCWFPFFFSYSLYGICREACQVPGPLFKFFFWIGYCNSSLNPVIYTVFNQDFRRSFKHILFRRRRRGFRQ
Experimental: as §2, §3

[10] = molecular target: dopaminergic D2 receptor (Homo sapiens, UniProt P14416); test: Binding assay D2S (h), [3H]methyl-spiperone, HEK-293 cells; design: expressed in transfected cells; host or cells: HEK-293 cells; details: read-out: D2 [%]
Sequence of dopaminergic D2 receptor (P14416 1-414 isoform P14416-2): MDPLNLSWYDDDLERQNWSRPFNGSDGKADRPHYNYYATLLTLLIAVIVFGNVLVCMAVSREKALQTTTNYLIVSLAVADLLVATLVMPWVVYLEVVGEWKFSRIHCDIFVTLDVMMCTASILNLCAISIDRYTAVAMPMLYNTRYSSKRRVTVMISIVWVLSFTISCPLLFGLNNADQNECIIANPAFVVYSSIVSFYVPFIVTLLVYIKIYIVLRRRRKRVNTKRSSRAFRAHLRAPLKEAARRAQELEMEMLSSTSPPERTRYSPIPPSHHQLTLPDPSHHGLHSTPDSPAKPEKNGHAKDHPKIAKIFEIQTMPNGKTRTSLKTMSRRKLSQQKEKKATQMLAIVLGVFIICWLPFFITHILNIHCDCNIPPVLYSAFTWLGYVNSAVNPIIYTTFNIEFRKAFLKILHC
Procedure, shortened: as §1

[11] = molecular target: T5, serotoninergic 5-HT1A receptor (Homo sapiens, UniProt P08908); test: Binding assay 5-HT1A (h), [3H]8-OH-DPAT, HEK-293 cells; design: expressed in transfected cells; host or cells: HEK-293 cells; details: read-out: 5-HT1A
T5 sequence (P08908 1-422): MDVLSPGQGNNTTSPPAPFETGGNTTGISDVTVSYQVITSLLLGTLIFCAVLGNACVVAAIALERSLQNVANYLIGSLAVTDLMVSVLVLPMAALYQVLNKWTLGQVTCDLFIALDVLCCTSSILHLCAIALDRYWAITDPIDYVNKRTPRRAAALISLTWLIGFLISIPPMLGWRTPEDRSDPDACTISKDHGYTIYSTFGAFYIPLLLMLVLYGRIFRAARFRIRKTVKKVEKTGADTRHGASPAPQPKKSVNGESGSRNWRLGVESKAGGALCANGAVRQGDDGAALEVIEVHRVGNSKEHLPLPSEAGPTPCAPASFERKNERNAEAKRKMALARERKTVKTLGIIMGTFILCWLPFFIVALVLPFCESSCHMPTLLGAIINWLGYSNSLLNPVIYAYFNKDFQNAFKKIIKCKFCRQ
Procedure, shortened: as §1

[12] = molecular target: serotoninergic 5-HT2A receptor (Homo sapiens, UniProt P28223); test: Binding assay 5-HT2A (h), [3H]ketanserin, HEK-293 cells; design: expressed in transfected cells; host or cells: HEK-293 cells; details: read-out: 5-HT2A
Sequence of serotoninergic 5-HT2A receptor (P28223 whole entry): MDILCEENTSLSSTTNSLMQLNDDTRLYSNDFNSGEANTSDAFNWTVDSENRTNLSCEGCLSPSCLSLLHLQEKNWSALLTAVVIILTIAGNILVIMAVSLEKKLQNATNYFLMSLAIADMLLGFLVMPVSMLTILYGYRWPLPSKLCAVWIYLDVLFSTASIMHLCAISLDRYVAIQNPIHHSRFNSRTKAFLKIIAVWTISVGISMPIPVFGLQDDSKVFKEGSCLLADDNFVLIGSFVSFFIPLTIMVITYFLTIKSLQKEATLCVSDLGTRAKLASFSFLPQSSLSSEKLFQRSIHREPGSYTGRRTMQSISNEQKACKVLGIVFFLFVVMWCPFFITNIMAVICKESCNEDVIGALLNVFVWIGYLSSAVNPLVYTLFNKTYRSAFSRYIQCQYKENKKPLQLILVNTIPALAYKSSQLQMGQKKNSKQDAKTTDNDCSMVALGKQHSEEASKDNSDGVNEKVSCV
Procedure, shortened: as §1

[13] = molecular target: histaminergic H1 receptor (Homo sapiens, UniProt P35367); test: Binding assay H1 (h), [3H]pyrilamine, HEK-293 cells; design: expressed in transfected cells; host or cells: HEK-293 cells; details: read-out: H1 [%]
Sequence of histaminergic H1 receptor (P35367 whole entry): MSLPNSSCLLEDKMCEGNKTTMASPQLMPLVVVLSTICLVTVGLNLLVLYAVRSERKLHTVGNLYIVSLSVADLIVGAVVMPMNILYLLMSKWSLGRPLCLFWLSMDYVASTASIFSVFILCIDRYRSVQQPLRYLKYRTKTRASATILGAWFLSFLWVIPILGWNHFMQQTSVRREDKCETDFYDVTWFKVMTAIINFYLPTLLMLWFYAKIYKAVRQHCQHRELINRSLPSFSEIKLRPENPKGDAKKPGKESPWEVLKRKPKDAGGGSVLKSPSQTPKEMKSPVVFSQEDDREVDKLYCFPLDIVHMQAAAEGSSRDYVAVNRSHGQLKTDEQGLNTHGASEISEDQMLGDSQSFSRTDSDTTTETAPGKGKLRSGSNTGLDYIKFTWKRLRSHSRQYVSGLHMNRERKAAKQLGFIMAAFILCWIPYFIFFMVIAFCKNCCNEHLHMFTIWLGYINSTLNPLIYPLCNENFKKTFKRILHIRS
Experimental: as §2, §3

T1 sequence (P31645 whole entry): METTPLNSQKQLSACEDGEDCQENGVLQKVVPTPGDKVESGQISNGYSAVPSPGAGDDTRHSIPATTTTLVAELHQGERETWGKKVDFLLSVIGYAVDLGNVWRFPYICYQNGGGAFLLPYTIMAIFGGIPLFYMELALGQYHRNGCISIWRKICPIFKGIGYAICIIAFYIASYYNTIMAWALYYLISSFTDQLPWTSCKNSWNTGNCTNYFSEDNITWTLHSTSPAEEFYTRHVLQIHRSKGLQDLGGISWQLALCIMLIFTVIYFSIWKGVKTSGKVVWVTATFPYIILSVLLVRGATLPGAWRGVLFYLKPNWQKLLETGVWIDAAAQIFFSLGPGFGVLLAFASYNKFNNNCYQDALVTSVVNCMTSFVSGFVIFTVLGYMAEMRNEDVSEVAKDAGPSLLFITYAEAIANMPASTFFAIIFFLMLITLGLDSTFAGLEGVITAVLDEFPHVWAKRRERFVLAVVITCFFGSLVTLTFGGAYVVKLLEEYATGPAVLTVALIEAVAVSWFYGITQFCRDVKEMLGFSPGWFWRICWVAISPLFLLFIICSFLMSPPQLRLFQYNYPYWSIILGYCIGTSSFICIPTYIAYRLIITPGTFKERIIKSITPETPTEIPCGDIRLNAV

SMILES	inhibition at 1 µM [1]	σ [%] [2]	α1 [%] [3]	inhibition at 1 µM [4]	inhibition at 1 µM [5]	inhibition at 1 µM [6]	inhibition at 1 µM [7]	inhibition at 1 µM [8]	inhibition at 1 µM [9]	inhibition at 1 µM [10]	inhibition at 1 µM [11]	inhibition at 1 µM [12]	inhibition at 1 µM [13]
O=S(=O)(NCCCN1CCN(c2nsc3ccccc23)CC1)c1cc2ccccc2s1 [Compound 262, N-[3-[4-(1,2-Benzothiazol-3-yl)piperazin-1-yl]propyl]benzothiophene-2-sulphonamide]	87%	51%	95%	19%	84%	98%	93%	99%	94%	98%	99%	102%	95%
O=S(=O)(NCCCN1CCN(c2nsc3ccccc23)CC1)c1cccc(C(F)(F)F)c1 [Compound 258, N-[3-[4-(1,2-Benzothiazol-3-yl)piperazin-1-yl]propyl]-3-(trifluoromethyl)benzenesulphonamide]	80%	61%	97%	15%	86%	97%	98%	100%	98%	95%	100%	101%	97%
O=S(=O)(NCCCN1CCN(c2nsc3ccccc23)CC1)c1ccc(Br)cc1 [Compound 252, N-[3-[4-(1,2-Benzothiazol-3-yl)piperazin-1-yl]propyl]-4-bromobenzenesulphonamide]	94%	59%	27%	16%	84%	98%	93%	99%	95%	97%	99%	101%	-77%
O=S(=O)(NCCCN1CCN(c2nsc3ccccc23)CC1)c1ccc2c(c1)OCO2 [Compound 269, N-[3-[4-(1,2-Benzothiazol-3-yl)piperazin-1-yl]propyl]-1,3-benzodioxole-5-sulphonamide]	96%	49%	97%	20%	92%	100%	98%	101%	101%	99%	99%	101%	92%
O=S(=O)(NCCCN1CCN(c2nsc3ccccc23)CC1)c1ccc(F)cc1 [Compound 248, N-[3-[4-(1,2-Benzothiazol-3-yl)piperazin-1-yl]propyl]-4-fluorobenzenesulphonamide]	80%	64%	91%	13%	84%	100%	98%	98%	93%	99%	97%	101%	97%
O=S(=O)(NCCCN1CCN(c2nsc3ccccc23)CC1)c1cccc(Br)c1 [Compound 253, N-[3-[4-(1,2-Benzothiazol-3-yl)piperazin-1-yl]propyl]-3-bromobenzenesulphonamide]	79%	64%	97%	24%	89%	99%	101%	99%	102%	99%	99%	101%	98%
O=S(=O)(NCCCCN1CCN(c2nsc3ccccc23)CC1)c1cccc2scnc12 [Compound 243, N-[4-[4-(1,2-Benzothiazol-3-yl)piperazin-1-yl]butyl]-1,3-benzothiazole-4-sulphonamide]	63%	29%	97%	10%	81%	93%	73%	99%	96%	100%	98%	100%	93%
O=S(=O)(NCCCCN1CCC(c2noc3cc(F)ccc23)CC1)c1ccc2c(c1)OCO2 [Compound 320, N-[4-[4-(6-Fluoro-1,2-benzoxazol-3-yl)piperidin-1-yl]butyl]-1,3-benzodioxole-5-sulphonamide]	13%	80%	98%	24%	46%	99%	82%	99%	101%	100%	69%	101%	84%
Cc1c(S(=O)(=O)NCCCCN2CCC(c3noc4cc(F)ccc34)CC2)sc2ccc(Cl)cc12 [Compound 315, 5-Chloro-N-[4-[4-(6-fluoro-1,2-benzoxazol-3-yl)piperidin-1-yl]butyl]-3-methylbenzothiophene-2-sulphonamide]	68%	72%	−13%	24%	78%	97%	98%	98%	93%	99%	70%	102%	90%
